Results as given in patent US20240366728A1, “Treatment of Diabetes Mellitus” (Carmot Therapeutics Inc., priority 2023, published 2024).
Entries after “also recorded” stand apart in the source; their conditions may differ.

Assays:
mouse GLP-1R [1] = biological target: T1, mouse GLP-1R (Mus musculus, UniProt O35659); test: β-arrestin-2 recruitment (NanoBiT), mouse GLP-1R; assay type: cell-based
T1 sequence (O35659 22-463): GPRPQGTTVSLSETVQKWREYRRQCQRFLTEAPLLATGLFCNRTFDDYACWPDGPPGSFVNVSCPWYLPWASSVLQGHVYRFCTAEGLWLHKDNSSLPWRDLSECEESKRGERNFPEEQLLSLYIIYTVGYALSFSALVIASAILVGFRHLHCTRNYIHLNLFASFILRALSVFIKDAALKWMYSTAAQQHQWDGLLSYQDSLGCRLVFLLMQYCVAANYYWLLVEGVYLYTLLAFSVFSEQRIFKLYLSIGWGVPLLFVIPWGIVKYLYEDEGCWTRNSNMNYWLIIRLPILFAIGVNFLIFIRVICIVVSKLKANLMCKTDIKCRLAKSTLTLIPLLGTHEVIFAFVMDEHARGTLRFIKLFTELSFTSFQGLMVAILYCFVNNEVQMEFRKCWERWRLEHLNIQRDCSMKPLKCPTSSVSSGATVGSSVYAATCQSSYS
Method: (§1) To measure GLP-1R and GIPR-mediated β-arrestin recruitment, we utilized Promega's NanoBiT® technology or NanoLuc® Binary Technology. The NanoLuc luciferase is split into two subunits, called LgBiT and SmBIT, which are expressed in HEK293 cells as fusion proteins at the C-terminus of GLP-IR or GIPR and the N-terminus of β-arrestin-2. […] The next day, the media was removed and replaced with […] 1:100 dilution of Nano-Glo® Live Cell Substrate in Opti-MEM™ and equilibrated to room temperature for ten minutes. Background luminescence was measured before 10 nL compound was added using an ECHO Acoustic Liquid Handler.
(§2) To measure GLP-1R and GIPR-mediated β-arrestin recruitment, Promega's NanoBiT® technology or NanoLuc® Binary Technology were utilized. Both allow for the detection and quantification of protein: protein interactions in live cells (Samms et al., Trends Endocrinol Metab 31:410-21). The NanoLuc luciferase is split into two subunits, called LgBiT and SmBIT, which are expressed in HEK293 cells as fusion proteins at the C-terminus of GLP-1R or GIPR and the N-terminus of β-arrestin-2, respectively. […] The next day, media was removed and replaced with 10 μL 1:100 dilution of Nano-Glo® Live Cell Substrate in Optimem and equilibrated to room temperature for ten minutes. Background luminescence was measured before 10 nL compound was added using an ECHO Acoustic Liquid Handler. Luminescence was measured at 1.5-minute intervals for 30 minutes.

mouse GIPR [2] = biological target: T2, mouse GIPR (Mus musculus, UniProt Q0P543); test: β-arrestin-2 recruitment (NanoBiT), mouse GIPR; assay type: cell-based
T2 sequence (Q0P543 19-460): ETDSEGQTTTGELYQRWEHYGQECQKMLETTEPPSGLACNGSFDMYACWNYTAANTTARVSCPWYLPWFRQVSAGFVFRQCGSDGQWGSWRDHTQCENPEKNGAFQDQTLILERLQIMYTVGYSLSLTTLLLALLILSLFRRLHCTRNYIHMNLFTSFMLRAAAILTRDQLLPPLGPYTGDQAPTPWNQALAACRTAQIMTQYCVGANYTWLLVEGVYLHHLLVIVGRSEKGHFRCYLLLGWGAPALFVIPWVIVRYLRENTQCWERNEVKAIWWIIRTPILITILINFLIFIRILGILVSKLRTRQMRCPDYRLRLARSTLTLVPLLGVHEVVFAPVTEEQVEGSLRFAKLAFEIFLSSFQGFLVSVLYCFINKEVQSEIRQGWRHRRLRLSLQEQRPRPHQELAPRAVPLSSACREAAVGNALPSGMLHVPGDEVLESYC
Method: as §1, §2

human GIPR = biological target: T3, human GIPR (Homo sapiens, UniProt P48546); test: receptor internalization (Nano-Glo HiBiT), human GIPR; assay type: cell-based
T3 sequence (P48546 22-466): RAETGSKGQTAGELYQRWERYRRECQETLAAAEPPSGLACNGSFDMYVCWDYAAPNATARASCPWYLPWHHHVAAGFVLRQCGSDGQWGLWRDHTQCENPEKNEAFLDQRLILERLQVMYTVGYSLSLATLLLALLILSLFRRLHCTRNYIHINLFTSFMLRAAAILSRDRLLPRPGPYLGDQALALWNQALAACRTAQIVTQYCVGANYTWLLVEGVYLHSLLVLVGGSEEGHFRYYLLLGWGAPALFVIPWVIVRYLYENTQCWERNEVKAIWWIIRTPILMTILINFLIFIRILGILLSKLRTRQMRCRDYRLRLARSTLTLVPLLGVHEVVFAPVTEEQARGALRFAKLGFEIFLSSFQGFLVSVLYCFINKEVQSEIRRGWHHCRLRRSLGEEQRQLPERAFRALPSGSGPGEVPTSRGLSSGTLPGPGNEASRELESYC
Method: (§3) GLP-1R and GIPR internalization were measured using Promega's Nano-Glo® HiBit extracellular detection system (Promega Corporation; Madison, WI). Hek293 cells were transiently transfected with HiBiT-tagged hGLP-1R or hGIPR plasmids (Promega Corporation; Madison, WI). Cells were lifted using the TrypLE express enzyme (ThermoFisher Scientific) and plated at 80,000-100,000 cells per well in 96 well plates. Cells were then treated with Nano-Glo HibiT extracellular buffer containing LgBiT protein (1:100), and the Nano-Glo HiBiT extracellular substrate (1:50).
(§4) GLP-1R and GIPR internalization was measured using Promega's Nano-Glo® HiBit extracellular detection system (Promega Corporation; Madison, WI). HEK293 cells were transiently transfected with low quantities of HiBiT-tagged hGLP-1R or hGIPR plasmids (Promega Corporation; Madison, WI). The next day, cells were lifted using TrypLE express enzyme (ThermoFisher Scientific) and plated at 80,000-100,000 cells per well in 96 well plates.

GIPR+/+ and GIPR-/- mice = test: intraperitoneal glucose tolerance test in GIPR+/+ and GIPR-/- mice; assay type: in vivo, mouse
C57BL/6J-DIO mice = test: intraperitoneal glucose tolerance test in DIO mice; assay type: in vivo, mouse; conditions: DIO mice; 20 nmol/kg
human GLP-1R = human GLP-1R (Homo sapiens, UniProt P43220); test: receptor internalization (Nano-Glo HiBiT), human GLP-1R; assay type: cell-based; set-up: host or cells: HEK293
human GLP-1R, sequence (P43220 24-463): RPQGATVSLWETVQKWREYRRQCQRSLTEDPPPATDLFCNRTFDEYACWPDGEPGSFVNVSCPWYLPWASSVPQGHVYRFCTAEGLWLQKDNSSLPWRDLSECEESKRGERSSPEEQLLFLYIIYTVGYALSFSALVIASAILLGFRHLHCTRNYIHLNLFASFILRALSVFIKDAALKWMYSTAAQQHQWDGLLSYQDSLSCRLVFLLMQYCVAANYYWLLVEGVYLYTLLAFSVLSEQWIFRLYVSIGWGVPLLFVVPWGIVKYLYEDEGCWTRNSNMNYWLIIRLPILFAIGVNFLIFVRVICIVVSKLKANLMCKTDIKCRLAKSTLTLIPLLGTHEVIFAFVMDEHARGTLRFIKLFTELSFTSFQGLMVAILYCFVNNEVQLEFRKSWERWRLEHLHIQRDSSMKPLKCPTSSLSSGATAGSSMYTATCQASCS
Method: as §3, §4

lean C57BL/6J mice = test: intraperitoneal glucose tolerance test in lean mice
mouse GLP-1R [3] = biological target: T1, mouse GLP-1R; test: cAMP accumulation (HitHunter cAMP assay), mouse GLP-1R U2OS cells
mouse GIPR [4] = biological target: T2, mouse GIPR; test: cAMP accumulation (HitHunter cAMP assay), mouse GIPR CHO-K1 cells
[5] = in vivo
toxicology studies = conditions: highest dose tested

Structure (SMILES): CCCCCCCCCCCCCCCC(=O)N[C@@H](CCC(=O)NCCCC[C@H](NC(=O)[C@H](CO)NC(=O)[C@@H]1CCCN1C(=O)[C@@H]1CCCN1C(=O)[C@@H]1CCCN1C(=O)[C@H](C)NC(=O)CNC(=O)[C@H](CO)NC(=O)[C@H](CO)NC(=O)[C@@H]1CCCN1C(=O)CNC(=O)CNC(=O)[C@H](C)NC(=O)[C@H](CC(C)C)NC(=O)[C@H](CC(C)C)NC(=O)[C@H](Cc1c[nH]c2ccccc12)NC(=O)[C@H](CC(N)=O)NC(=O)[C@@H](NC(=O)[C@H](Cc1ccccc1)NC(=O)[C@H](CCC(=O)O)NC(=O)C(C)(C)NC(=O)[C@H](C)NC(=O)[C@H](C)NC(=O)[C@H](CCC(N)=O)NC(=O)[C@H](CCCCN)NC(=O)[C@H](CC(=O)O)NC(=O)[C@H](CC(C)C)NC(=O)[C@H](Cc1ccc(O)cc1)NC(=O)[C@@H](NC(=O)[C@H](CO)NC(=O)[C@H](Cc1ccc(O)cc1)NC(=O)[C@H](CC(=O)O)NC(=O)[C@H](CO)NC(=O)[C@@H](NC(=O)[C@H](Cc1ccccc1)NC(=O)[C@@H](NC(=O)CNC(=O)[C@H](CCC(=O)O)NC(=O)CSCC(=O)NCCN1C(=O)CSC1=O)[C@@H](C)O)[C@@H](C)O)[C@@H](C)CC)C(C)C)C(N)=O)C(=O)O [CT-859]
- recruitment of β-arrestin-2 to mouse GLP-1R (mouse GLP-1R [1]): < 5%
- native ligand mediated recruitment of β-arrestin-2 at GLP-1R (in words) (mouse GLP-1R [1]; antagonist mode vs GLP-1): inhibited
- native ligand mediated recruitment of β-arrestin-2 at GIPR (in words) (mouse GIPR [2]; antagonist mode vs GIP): inhibited
- recruitment of β-arrestin-2 to mouse GIPR (mouse GIPR [2]; vs GIP): < 5%
- human GIPR surface expression (in words) (human GIPR): stimulating greater surface expression than vehicle
- reduction in GLUC AUC in GTT (GIPR+/+ and GIPR-/- mice; 20 nmol/kg, 4 h after dosing): 62%
- glucose lowering (in words) (GIPR+/+ and GIPR-/- mice; 20 and 200 nmol/kg): efficacious at lowering glucose levels
- duration of glucose lowering (in words) (GIPR+/+ and GIPR-/- mice; single 20 nmol/kg, ipGTT at 4, 24, 48 h): maintained its activity at 24 and 48 hours; also recorded: maintained significant reduction after 24 h and 48 h
- glucose AUC 4 hours after administration (in words) (C57BL/6J-DIO mice): more efficacious than liraglutide in DIO mice
- GLP-1R expression after two hours of exposure (in words) (human GLP-1R): higher versus vehicle-treated cells
- in vivo potency vs liraglutide (in words) (lean C57BL/6J mice): more potent than liraglutide in vivo
- duration of glucose lowering (in words) (lean C57BL/6J mice; lean C57BL/6J and DIO mice, single 20 nmol/kg): remained efficacious up to 48 hours post-administration
- ED50 for improving post-prandial glucose in ipGTT (lean C57BL/6J mice; lean C57BL/6J mice, 4 h after SC dose): 0.46 nmol/kg
- acute effect on GLUC AUC (in words) (lean C57BL/6J mice; lean mice, 20 nmol/kg, 4 h after administration): acute reduction of glucose (GLUC) AUC
- reduction in GLUC AUC vs. vehicle (lean C57BL/6J mice; lean mice, 20 nmol/kg, 48 hours): 45%
- agonist type for cAMP accumulation at mouse GLP-1R (in words) (mouse GLP-1R [3]): full agonist
- times less potent than Liraglutide (mouse GLP-1R [3]; cAMP, mouse GLP-1R): 12 times
- times less potent than native ligand GLP-1 (mouse GLP-1R [3]; cAMP, mouse GLP-1R): 113 times
- agonist type for cAMP accumulation at mouse GIPR (in words) (mouse GIPR [4]): partial agonist
- times lower potency than GIP (mouse GIPR [4]; cAMP, mouse GIPR): 48 times

Structure (SMILES): CCCCCCCCCCCCCCCC(=O)N[C@@H](CCC(=O)NCCCC[C@H](NC(=O)[C@H](CO)NC(=O)[C@@H]1CCCN1C(=O)[C@@H]1CCCN1C(=O)[C@@H]1CCCN1C(=O)[C@H](C)NC(=O)CNC(=O)[C@H](CO)NC(=O)[C@H](CO)NC(=O)[C@@H]1CCCN1C(=O)CNC(=O)CNC(=O)[C@H](C)NC(=O)[C@H](CC(C)C)NC(=O)[C@H](CC(C)C)NC(=O)[C@H](Cc1c[nH]c2ccccc12)NC(=O)[C@H](CC(N)=O)NC(=O)[C@@H](NC(=O)[C@H](Cc1ccccc1)NC(=O)[C@H](CCC(=O)O)NC(=O)C(C)(C)NC(=O)[C@H](C)NC(=O)[C@H](C)NC(=O)[C@H](CCC(N)=O)NC(=O)[C@H](CCCCN)NC(=O)[C@H](CC(=O)O)NC(=O)[C@H](CC(C)C)NC(=O)[C@H](Cc1ccc(O)cc1)NC(=O)[C@@H](NC(=O)[C@H](CO)NC(=O)[C@H](Cc1ccc(O)cc1)NC(=O)[C@H](CC(=O)O)NC(=O)[C@H](CO)NC(=O)[C@@H](NC(=O)[C@H](Cc1ccccc1)NC(=O)[C@@H](NC(=O)CNC(=O)[C@H](CCC(=O)O)NC(=O)CSCC(=O)NCCN1CCCCC1=O)[C@@H](C)O)[C@@H](C)O)[C@@H](C)CC)C(C)C)C(N)=O)C(=O)O [CT-868]
- EC50 (mouse GLP-1R [1]; Table 17, read-out: mGLP-1R β-arrestin-2 EC50): 21 nM
- Emax (mouse GLP-1R [1]; read-out: mGLP-1R β-arrestin-2 % Emax, Table 17): 4.69%
- Emax (mouse GIPR [2]; read-out: mGIPR β-arrestin-2 % Emax, Table 17): -1.92%
- Emax (human GIPR; Table 17, read-out: hGIPR Internalization % Emax): -11%
- highest tested dose exceeds pharmacologically active dose by [5]: 100 fold
- vomiting (in words) [5]: no instances of vomiting
- tolerability in toxicology studies (in words) (toxicology studies): well-tolerated at the highest dose tested
- Emax (human GLP-1R; Table 17, read-out: hGLP-1R Internalization % Emax): -13%
- Emax (mouse GLP-1R [3]; U2OS, read-out: mGLP-1R cAMP (-alb) % Emax): 95%
- Emax (mouse GIPR [4]; CHO-K1, read-out: mGIPR cAMP (-alb) % Emax): 36%
